Reference: patent US11186551B2, “Composition of scalable thyrointegrin antagonists with improved retention in tumors” (NanoPharmaceuticals, LLC, priority 2020, dated 2021)
Entries after “also recorded” stand apart in the source; their conditions may differ.

Tests used:
[1] = tested on: angiogenesis induced by bFGF, VEGF, HGF; test: Anti-angiogenic effect in CAM Models in the presence of growth factors; type: in vivo
Excerpt: In addition to good initial uptake, the disclosed compounds also have good anti-angiogenic effect. […] Specifically, Compound 2 is effective at reducing the percentage of angiogenesis present in CAM Models, when administered in the presence of the following growth factors: bFGF, VEGF, VEGF+bFGF, and bFGF+VEGF+HGF.
This broad spectrum anti-angiogenic effect is in contrast to existing therapeutic compounds/compositions such as AVASTIN® (bevacizumab).

[2] = mouse, in vivo, sc, 10 mg/kg
Description: Concentrations are shown as recorded 3 h following administration.
Each group contained 4 mice.

U87-luc xenografts = test: GBM xenograft efficacy: tumor weight and luminescent signal intensity; type: in vivo, Nude mice; conditions: for Tumor weight after 3 weeks of treatment: control approximately 600 mg; for Luminescent signal intensity after 3 weeks of treatment: control approximately 600,000p/s
Description: The efficacy of these compounds/compositions with respect to GBM tumors will now be described with reference to FIGS. 30-33. The study protocol is as follows: Nude mice having U87-luc xenografts were treated with varying dosages of Compound 2 (fb-PMT) for 3 weeks. Efficacy was determined by tumor weight and luminescent signal intensity compared with a control group. Further, treatment efficacy was also evaluated in comparison with known potential treatment Cilengitide. Efficacy was also determined again after an additional 3 week period with no additional treatment.

[3] = mouse, in vivo, sc, 10 mg/kg; remark: listed apart in the source
Description: Again, a single subcutaneous injection was used in mice. The administered dose was 10 mg/Kg.

[4] = cynomolgus monkey, in vivo, sc, 15 mg/kg
[5] = Compound 2 6 mg/kg, Cilengitide 75 mg/kg
[6] = Compound 2 6 mg/kg, Cilengitide 75 mg/kg, control approximately 750 mg
[7] = Compound 2 6 mg/kg, Cilengitide 75 mg/kg, control over 800,000p/s

Compound | Average Brain Concentration (ng/g), 3 hour [2] [ng/g] | Tumor weight after 3 weeks of treatment (U87-luc xenografts; [5]) | Tumor weight after 3 weeks of treatment followed by 3 weeks without treatment (U87-luc xenografts; [6]) | Luminescent signal intensity after 3 weeks of treatment (U87-luc xenografts; [5]) | Luminescent signal intensity after 3 weeks of treatment followed by 3 weeks without treatment (U87-luc xenografts; [7]) | further results
bevacizumab [AVASTIN®] | – | – | – | – | – | Anti-angiogenic effect in CAM Model against VEGF alone ([1]; VEGF alone): primarily effective against VEGF alone; Percent of angiogenesis in CAM Model for bFGF or HGF ([1]; bFGF or HGF): does not meaningfully reduce; Anti-angiogenic effect in CAM Model, VEGF combined with other growth factors ([1]; bFGF or bFGF and HGF present along with VEGF): does not demonstrate good effect
di-tbutylbenzyl conjugated to triazole tetrac by polyethylene glycol [Compound 4] | 922 | – | – | – | – | –
fluorobenzyl conjugated to triazole tetrac by polyethylene glycol [Compound 2] | 228 | under 50 mg | further reduction | negligible levels | even further reduction | Tumor weight after 3 weeks of treatment (U87-luc xenografts; all doses 1, 3, 6 and 10 mg/kg): under 100 mg; Tumor weight after 3 weeks of treatment followed by 3 weeks off treatment (U87-luc xenografts; all doses 1, 3, 6 and 10 mg/kg, control approximately 750 mg): further and additional reduction; Luminescent signal intensity after 3 weeks of treatment (U87-luc xenografts; all doses 1, 3, 6 and 10 mg/kg): under 100,000 p/s; Luminescent signal intensity after 3 weeks of treatment followed by 3 weeks off treatment (U87-luc xenografts; all doses 1, 3, 6 and 10 mg/kg, control over 800,000p/s): further and additional reduction; Brain tissue uptake and retention over time [3]: uptake and retention over a 24 hour period; Time of plasma concentration peak [4]: 1 to 4 h; Percentage of angiogenesis in CAM Model ([1]; 1.0 μg, growth factors bFGF, VEGF, VEGF+bFGF, bFGF+VEGF+HGF): only slightly above baseline; also recorded: inhibition of angiogenesis against all three growth factors, both alone and in combination
CC(C)[C@H]1C(=O)N[C@@H](CCCN=C(N)N)C(=O)NCC(=O)N[C@@H](CC(=O)O)C(=O)N[C@H](Cc2ccccc2)C(=O)N1C [Cilengitide, reference compound] | – | approximately 300 mg | over 400 mg | approximately 300,000 p/s | over 500,000 p/s | –
